The values that follow come from patent US7563921B2, “2-cyano-3(halo)alkoxy-benzenesulfonamide compounds for combating animal pests” (BASF Aktiengesellschaft, priority 2004, dated 2009).

Assay [1] deals with Green Peach Aphid (Myzus persicae). Briefly: Green Peach Aphid foliar dip test on pepper plants. The assay is classed as in vivo. The note with it: 120 h, pepper plant leaves dipped, aphid mortality after 5 days, read-out: mortality in comparison with untreated controls. From the text: Green Peach Aphid (Myzus persicae)
(§1) The active compounds were formulated in 50:50 acetone:water and 100 ppm Kinetic® surfactant.
Pepper plants in the 2nd leaf-pair stage (variety ‘California Wonder’) were infested with approximately 40 laboratory-reared aphids by placing infested leaf sections on top of the test plants. The leaf sections were removed after 24 hr. The leaves of the intact plants were dipped into gradient solutions of the test compound and allowed to dry. Test plants were maintained under fluorescent light (24 hour photoperiod) at about 25° C. and 20-40% relative humidity. Aphid mortality on the treated plants, relative to mortality on check plants, was determined after 5 days.

The subject of assay [2] is Cotton Aphid (Aphis gossypii). The assay can be described thus: Cotton Aphid cotyledon dip test on cotton plants. It is filed as in vivo. The note with it: 120 h, cotton cotyledons dipped, mortality counts after 5 days, read-out: mortality in comparison with untreated controls.
Source text: Cotton Aphid (Aphis gossypii)
as §1
Cotton plants in the cotyledon stage (variety ‘Delta Pine’, one plant per pot) were infested by placing a heavily infested leaf from the main colony on top of each cotyledons. The aphids were allowed to transfer to the host plant overnight, and the leaf used to transfer the aphids was removed. The cotyledons were dipped in the test solution and allowed to dry. After 5 days, mortality counts were made.

The next assay deals with Bean Aphid (Aphis fabae). Briefly: Bean Aphid plant dip test on nasturtium plants. It is filed as in vivo. The note with it: 72 h, nasturtium plants dipped, aphid mortality after 3 days, read-out: mortality in comparison with untreated controls.
Source text: as §1
Nasturtium plants grown in Metro mix in the 1st leaf-pair stage (variety ‘Mixed Jewel’) were infested with approximately 20-30 laboratory-reared aphids by placing infested cut plants on top of the test plants. The cut plants were removed after 24 hr. Each plant was dipped into the test solution to provide complete coverage of the foliage, stem, protruding seed surface and surrounding cube surface and allowed to dry in the fume hood. The treated plants were kept at about 25° C. with continuous fluorescent light. Aphid mortality is determined after 3 days.

Assay [3] has as its system cotton aphids (Aphis gossypil). Briefly: Cotton seed treatment, control of foliar aphids. It is filed as in vivo, Aphis gossypii. The note with it: live aphids counted four days after infestation, versus solvent blank controls. How it is done:
Experimental compound no. 1 (N,N-Dimethyl-2-cyano-3-difluoromethoxyphenylsulfonamide) was evaluated to determine their insecticidal efficacy for control of foliar aphids when applied as seed treatment.
Experimental compound no. 1 was formulated by dissolving 10.5 mg technical material in 45 μl acetone then adding 255 μl 0.05% aqueous TWEEN 20 (polyoxyethylene (20) sorbitan monolaurate).
Twenty-five cotton seeds (variety Sure-Grow 747) were placed in a 20-ml glass vial and then 150 μl of the compound formulation were pipetted onto the side of the vial just above the seeds. Vials were vortexed for 30 seconds to rapidly spin the seeds within the vial to apply the compound to the seeds. Treated seeds were then air-dried. […]
Twenty-four cotton seeds were planted in Metro Mix potting mix in twelve 7.6-cm-square pots, 2 seeds per pot. Crop selectivity was determined by comparing seedling emergence and recording any foliar and shoot symptoms.
Seedling plants were thinned to one plant per pot. […] The exact number of aphids transferred to each plant was recorded.
Four days after infestation, live aphids on each plant were counted. The aphid population increase for each control plant was calculated by dividing the final aphid population by the initial population. The median aphid population increase on the solvent blank controls was then calculated. […]

For orientation: mortality means the percentage killed. Consider `CN(C)S(=O)(=O)c1cccc(OC(F)F)c1C#N` [Compound 1, N,N-Dimethyl-2-cyano-3-difluoromethoxyphenylsulfonamide], for which the mortality at 300 ppm (in assay [1]; in assay [2]; with Bean Aphid (Aphis fabae)) was above 85% each time. Besides, the “reduction of the aphid population” value in assay [3] is recorded as “significant reduction of the aphid population”.
Turning to `COc1cccc(S(=O)(=O)N(C)C)c1C#N` [Compound 2, N,N-Dimethyl-2-cyano-3-methoxyphenylsulfonamide], the mortality at 300 ppm (in assay [1]; in assay [2]; in the assay with Bean Aphid (Aphis fabae)) was above 85% in each case.
